Values quoted from earlier work, collected in patent US8097593B1, “Lipid A and other carbohydrate ligand analogs” (Oncothyreon Inc., priority 2002, dated 2012).

Legend:
[1] = not given; remark: listed apart in the source

| Compound | immunostimulating activities, in words (compared with diphosphoryl Lipid-A (and endotoxin itself)) | times less potent in eliciting toxic and pyrogenic responses (on a molar basis) | experimental log P [1] |
| --- | --- | --- | --- |
| monophosphoryl Lipid-A | comparable | 1000 times |  |
| CC(C)(C)C [CC(C)(C)C, 2,2-dimethylpropane] |  |  | 3.11 |
